Where “and” joins values, the source holds several entries; their conditions need not be identical. Equal values may be shown once.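 The compound was tested at five concentrations on cells cultured in 96-well plates, with a 48-hour exposure period. Abbreviation: GI50, concentration required for 50% inhibition of growth. TGI: concentration producing complete growth inhibition.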
Assays:
Test in all cases: inhibition of tumour cell growth, NCI panel, 48 h
UO-31 renal = tested on: UO-31 renal
KM12 colon = tested on: KM12 colon
SF-268 CNS = tested on: SF-268 CNS
HS 578T breast = tested on: HS 578T breast
K-562 leukemia = tested on: K-562 leukemia
RPMI-8226 leukemia = tested on: RPMI-8226 leukemia
HOP-62 NSCLC = tested on: HOP-62 NSCLC
UACC-257 melanoma = tested on: UACC-257 melanoma
SF-295 CNS = tested on: SF-295 CNS
SR leukemia = tested on: SR leukemia

Structure (SMILES)	GI50 (UO-31 renal)	TGI (UO-31 renal)	GI50 (KM12 colon)	TGI (KM12 colon)	TGI (SF-268 CNS)	GI50 (HS 578T breast)	TGI (HS 578T breast)	GI50 (K-562 leukemia)	TGI (K-562 leukemia)	GI50 (RPMI-8226 leukemia)	TGI (RPMI-8226 leukemia)	GI50 (HOP-62 NSCLC)	TGI (HOP-62 NSCLC)	GI50 (UACC-257 melanoma)	TGI (UACC-257 melanoma)	GI50 (SF-295 CNS)	TGI (SF-295 CNS)	GI50 (SR leukemia)	TGI (SR leukemia)	GI50 (SF-268 CNS)
CC(=O)OCC1OC(O[C@@H]2C[C@H]3C(C)(C)[C@H](OC(C)=O)CC[C@]3(C)[C@H]3CCC4=C([C@@H](C)C[C@@H](O)[C@H](O)C(C)(C)O)CC[C@@]4(C)[C@@]32C)C(O)C(O)C1O (some centres undefined)	18.4 µM	32.7 µM	22.6 µM	37.1 µM	27.7 µM	15.2 µM	32.8 µM	12.7 µM	32.5 µM	10.5 µM	30.1 µM	16.2 µM	30 µM	16.3 µM	30.3 µM	17.5 µM	31.6 µM	12.2 µM	27.8 µM	–
Clc1ccccc1C(c1ccccc1)(c1ccccc1)n1ccnc1	1.45 µM	9 µM and 19.8 µM	2.23 µM	6.25 µM and 36.8 µM	18.8 µM and 35.7 µM	3.45 µM	19.7 µM and 35.2 µM	–	> 42.1 µM	–	> 62.7 µM	2.99 µM	12.5 µM and 26.6 µM	3.43 µM	14.2 µM and 25.2 µM	1.94 µM	9.67 µM and 23.7 µM	1.86 µM	6.93 µM	3.92 µM
Cc1cc2nc3c4cc(Cl)ccc4n(CCN(C)C)c3nc2cc1C	0.389 µM	3.35 µM	1.55 µM	3.17 µM	5.29 µM	2.35 µM	6.99 µM	1.36 µM	4.03 µM	1.55 µM	4.12 µM	1.53 µM	4.57 µM	1.76 µM	3.59 µM	1.91 µM	3.79 µM	0.682 µM	2.88 µM	1.93 µM
CCCCCCCCCCCCCC(=S)NCCCC[C@H](NC(=O)OCc1ccccc1)C(=O)Nc1ccccc1	2.39 µM	> 100 µM	4.33 µM	> 100 µM	> 100 µM	4.31 µM	> 100 µM	4.21 µM	> 100 µM	3.5 µM	> 100 µM	16 µM	> 100 µM	5.38 µM	> 100 µM	3.4 µM	72.1 µM	3.9 µM	> 100 µM	5.84 µM
COc1cc(/C=C\[N+](=O)[O-])ccc1O	1.48 µM	3.25 µM	4.93 µM	17.3 µM	12.8 µM	4.71 µM	28.8 µM	3.17 µM	10.8 µM	2.2 µM	6.11 µM	3.21 µM	13.8 µM	2.42 µM	6.77 µM	17.2 µM	31.5 µM	0.987 µM	38.5 µM	3.44 µM
N#Cc1c(-c2cccs2)c2c(=S)[nH]c(=S)[nH]c2[nH]c1=S	40.6 µM	92.6 µM	28.6 µM	> 100 µM	67.2 µM	53.7 µM	90.3 µM	27.1 µM	> 100 µM	27.4 µM	73.6 µM	> 100 µM	> 100 µM	18 µM	81.3 µM	46.5 µM	> 100 µM	29.3 µM	> 100 µM	32.4 µM
CC(CO)(CO)N=Cc1cc(I)cc(I)c1O	–	34.6 µM	–	28.2 µM	36.5 µM	–	74 µM	–	83.5 µM	–	> 100 µM	–	25 µM	–	45.1 µM	–	47.3 µM	–	54.1 µM	–
COc1ccc(C(=O)Nc2ncc(Cc3ccc(Cl)cc3)s2)cc1	0.91 µM	> 100 µM	0.0373 µM	> 37.1 µM	> 100 µM	0.0407 µM	> 77 µM	0.041 µM	> 100 µM	0.0375 µM	–	0.0984 µM	> 83.4 µM	20 µM	> 100 µM	0.0561 µM	1.97 µM	0.0375 µM	> 70.4 µM	0.3 µM
CC1(C)N=C(N)N=C(N)N1c1ccc(CCCCc2ccc(S(=O)(=O)F)cc2)cc1	35.1 µM	> 100 µM	0.601 µM	13 µM	16.9 µM	13.2 µM	46 µM	0.472 µM	28.8 µM	0.522 µM	10.8 µM	3.86 µM	20.1 µM	2.07 µM	18.3 µM	5.71 µM	> 54.2 µM	0.58 µM	25.8 µM	0.704 µM
O=C(/C=C/c1ccc(Cl)cc1)c1ccc(Cl)cc1Cl	7.62 µM	14.4 µM	5.73 µM	13.8 µM	21.8 µM	11.7 µM	25.9 µM	1.68 µM	14.2 µM	1.42 µM	11 µM	10.9 µM	25.1 µM	10.4 µM	18.5 µM	10.6 µM	21.4 µM	2.31 µM	50 µM	10.1 µM
CC(=O)Nc1cccc(-n2c(=O)n(C3CC3)c(=O)c3c(Nc4ccc(I)cc4F)n(C)c(=O)c(C)c32)c1	0.141 µM and 0.0654 µM	10.1 µM and > 10 µM	0.0102 µM and 0.0225 µM	> 53.7 µM	> 100 µM	4.06 µM and 4.64 µM	43.8 µM and > 10 µM	0.0955 µM and 0.196 µM	> 100 µM	5.35 µM and > 4.38 µM	> 100 µM	0.0121 µM	> 50.7 µM	< 0.01 µM and 0.00182 µM	< 0.01 µM and 0.0126 µM	7.21 µM and > 10 µM	59.4 µM and > 10 µM	3.65 µM and > 10 µM	45.6 µM and > 10 µM	3.85 µM and > 6.08 µM
NC(CO)Cc1cnc[nH]1 (centres undefined)	> 100 µM	> 100 µM	> 100 µM	> 100 µM	> 100 µM	> 100 µM	> 100 µM	> 100 µM	> 100 µM	> 100 µM	> 100 µM	> 100 µM	> 100 µM	–	> 100 µM	> 100 µM	> 100 µM	> 100 µM	> 100 µM	> 100 µM
COc1cc(C(=O)NC2c3ccccc3-c3ccccc32)c(N)cc1OCc1ccccc1	30.2 µM	> 100 µM	> 100 µM	> 100 µM	> 62.1 µM	14.5 µM	79.1 µM	15.9 µM	> 100 µM	97.5 µM	> 100 µM	10.6 µM	38.4 µM	58.7 µM	> 100 µM	15.4 µM	41 µM	98.6 µM	> 100 µM	16.8 µM
Oc1ccccc1/C=N/Nc1ccc2ccccc2n1	1.17 µM	35.6 µM	3.24 µM	> 100 µM	69.3 µM	6.87 µM	76.3 µM	3.18 µM	> 100 µM	3.45 µM	> 100 µM	7.09 µM	44.7 µM	3.14 µM	9.57 µM	4.44 µM	> 100 µM	4.35 µM	> 100 µM	3.09 µM
Nc1n[nH]c2ccc([C@@H]3Nc4ccc5[nH]ncc5c4[C@H]4[C@H]5CCC(C5)[C@H]43)cc12	0.698 µM	46.5 µM	0.406 µM	10.8 µM	43.7 µM	0.31 µM	12.7 µM	0.264 µM	> 100 µM	0.338 µM	2.37 µM	0.597 µM	> 74 µM	15.8 µM	> 100 µM	0.302 µM	3.47 µM	0.28 µM	20.2 µM	1.56 µM
COc1ccc(NC(=O)Nc2n[nH]c3ccccc23)cc1	> 100 µM	> 100 µM	> 100 µM	> 100 µM	> 100 µM	> 100 µM	> 100 µM	> 100 µM	> 100 µM	> 100 µM	> 100 µM	> 100 µM	> 100 µM	> 100 µM	> 100 µM	> 100 µM	> 100 µM	> 100 µM	> 100 µM	> 100 µM
COc1cc2ncn(-c3cc(OCc4ccccc4Cl)c(C(N)=O)s3)c2cc1OC	1.14 µM	> 25 µM	0.0806 µM	> 11.8 µM	> 13 µM	0.609 µM	5.77 µM	0.114 µM	> 25 µM	0.341 µM	> 25 µM	0.217 µM	7.15 µM	–	> 25 µM	0.186 µM	> 11.2 µM	0.113 µM	> 25 µM	0.187 µM
CN1CCN(CC#Cc2cccc(C(=O)c3cnn(-c4ccc(F)cc4)c3N)c2)CC1	> 25 µM	> 25 µM	> 25 µM	> 25 µM	> 25 µM	> 25 µM	> 25 µM	> 25 µM	> 25 µM	> 25 µM	> 25 µM	> 25 µM	> 25 µM	> 25 µM	> 25 µM	> 25 µM	> 25 µM	> 25 µM	> 25 µM	> 25 µM
O=C1/C(=C/c2ccc(F)cc2)CCOc2ccc([N+](=O)[O-])cc21	2.06 µM	5.03 µM	1.83 µM	4.4 µM	53.2 µM	4.94 µM	47.1 µM	0.964 µM	> 100 µM	0.862 µM	3.14 µM	2.89 µM	8.33 µM	2.62 µM	6.29 µM	3.08 µM	9.23 µM	2.07 µM	6.35 µM	22.3 µM
CN=C(N)N/N=C(\c1ccccc1)c1ccc(Br)cc1	0.519 µM	6.28 µM	0.334 µM	4.4 µM	11.8 µM	0.38 µM	5.37 µM	0.294 µM	6.31 µM	0.441 µM	3.13 µM	1.15 µM	13.3 µM	0.913 µM	12.9 µM	0.287 µM	1.48 µM	0.31 µM	2.42 µM	0.685 µM
CCn1c(-c2nonc2N)nc2c(C#CCN)ncc(OCCCN)c21	> 25 µM	> 25 µM	> 25 µM	> 25 µM	> 25 µM	> 25 µM	> 25 µM	> 25 µM	> 25 µM	> 25 µM	> 25 µM	> 25 µM	> 25 µM	> 25 µM	> 25 µM	> 25 µM	> 25 µM	> 25 µM	> 25 µM	> 25 µM
COc1cc(-n2cc(-c3ccc(Cl)c(Cl)c3)nc2SCc2ccccc2)cc(OC)c1OC	> 100 µM	> 100 µM	> 100 µM	> 100 µM	> 100 µM	> 100 µM	> 100 µM	> 100 µM	> 100 µM	> 100 µM	> 100 µM	> 100 µM	> 100 µM	> 100 µM	> 100 µM	> 100 µM	> 100 µM	> 100 µM	> 100 µM	> 100 µM

From PubChem BioAssay (NCI)
